Laboratory results taken from patent US20260133193A1, “COMPOSITIONS AND METHODS FOR TREATING INFLAMMATORY DISEASES” (University of Washington, priority 2018, published 2026).
“Also recorded” adds a separate entry of the source.

Columns and labels:
Assay type in all cases: cell-based, human
FcgRIIA on neutrophils [1] = experiment: FcgRIIA shedding, fluorimetry of shed antibody-FcgRIIA complexes in supernatant; conditions: pre-labeled neutrophils, R848 stimulation
Method: To assess if reduction in FcgRIIA cell surface expression was dependent on proteolytic cleavage or internalization of the receptor, we analyzed total FcgRIIA expression in fixed permeabilized neutrophils. Specifically, neutrophils were activated with R848 and FcgRIIA levels analyzed in permeabilized cells by flow cytometry. The experiment was repeated five times and compared using paired t test (P=0.0075). […] Specifically, FcgRIIA cell surface expression was analyzed by flow cytometry using two antibodies, FUN2 and IV.3, in non-stimulated and R848-stimulated neutrophils. The experiment was repeated six times; combined results were compared using paired t test (P<0.0001). […] For this experiment, neutrophils were labeled with FITC-conjugated IV.3 anti-FcgRIIA or anti-FUN-2 antibodies and the shed antibody-FcgRIIA complex quantified by fluorimetry following R848 stimulation with or without prior addition of a pan-protease inhibitor. […]
For detection of shed FcgRIIA, neutrophils were pre-labeled with FITC-conjugated anti-CD32A antibody IV.3 (Stemcell Technologies) or FITC-conjugated anti-CD32A antibody FUN-2 (Biolegend), and washed extensively prior to activation with R848. Cell free supernatant was analyzed for shed FcgRIIA-anti-CD32A-FITC complexes by flourimetry (Synergy 2, BioTek) using anti-CD32A antibodies as a standard curve. […]

neutrophils = experiment: ROS analysis in neutrophils (DHR123, OxyBURST); conditions: flow cytometry and fluorimetry, cell impermeable ROS dye
FcgRIIA on neutrophils [2] = experiment: FcgRIIA shedding, flow cytometry of neutrophil cell surface FcgRs; conditions: flow cytometry
From the text: To determine the mechanism for the TLR-induced reduction in RNP-IC phagocytosis, we analyzed the neutrophil surface expression of FcgRs after exposure to TLR ligand. Neutrophils were activated with R848 and cell surface expression of FcgRs analyzed by flow cytometry. The results were presented as FcgR levels as compared to no R848 added (% of control). The experiment was repeated five (FcgRI), seven (FcgRIII), and twenty-five (FcgRIIA) times; combined results were compared using paired t test (FcgRIIA, P<0.0001; FcgRI, P=0.027; FcgRIII, P=0.0044). […] In this experiment, neutrophils were activated with the TLR7/8 agonist R848 and analyzed for FcgRIIA at different time-points and concentrations. The experiment was repeated four (concentration) and six (kinetics) times; combined results were compared using paired t test (30 min, P=0.0158; 60 min, P<0.0001; 120 min, P=0.0003; 0.125 μg/mL, P=0.0071; 0.25 μg/mL, P=0.0058; 0.5 μg/mL, P=0.0008; 1 μg/mL, P<0.0001; 2 μg/mL, P<0.0001). […] For these experiments, neutrophils were activated with TLR ligands (LPS, 1 μg/mL, PAM3CSK4 (5 μg/mL), CpG DNA (2 μg/mL), Loxoribine (0.1 mM), CL075 (2.5 μg/mL) or R848 (2 μg/mL)) for 60 minutes or 4 hours and analyzed for FcgRIIA, FcgRII or CD11b and CD66b cell surface expression by flow cytometry. Experiments were repeated six (LPS, P=0.0008), eight (CpG DNA, P=0.035; Loxoribine, P<0.0001, and CL075, P<0.0001), ten (PAM3CSK4, P<0.0001) and forty times (R848, P<0.0001); combined results were compared using paired t test. Additional experiments were repeated four and eight times; combined results were compared using paired t test (CD11b: R848, P<0.0001; LPS, P=0.0002; PAM, P<0.0001; CpG DNA, P<0.0001; CD66b: R848, P<0.0001; LPS, P<0.0001; PAM, P<0.0001; CpG DNA, P=0.014).
Neutrophils were activated by LPS (1 μg/mL), R848 (2 μg/mL), PAM3CSK4 (5 μg/mL), Loxoribine (0.1 mM), CL075 (2.5 μg/mL) or CpG DNA (2 μg/mL) for 30 minutes, followed by analysis of cell surface expression of CD32A (IV.3; Stemcell Technologies, FUN-2, BioLegend), CD16 (clone 3G8), CD64 (clone 10.1), and CD66b (all from BioLegend) by flow cytometry. For intracellular staining, neutrophils were fixed in 2% paraformaldehyde for 10 minutes, permeabilized with saponin (diluted 1:1000 in PBS) for 15 minutes and stained with anti-CD32A antibodies diluted 1:100. In some experiments, neutrophils were incubated with inhibitors (DPI (25 μM, Sigma), apocynin (100 μM, Sigma), GM-6001 (10 μM, Enzo Life Sciences), LY294002 (10 μM), cOmplete Protease Inhibitor Cocktail Tablets (1× dissolved in H2O, Roche), neutrophil elastase IV inhibitor (25 μM, Calbiochem), E-64 (1 μM, Sigma), 4-(2-Aminoethyl)benzenesulfonyl fluoride hydrochloride (AEBSF, 0.1 mM, Sigma), CMK (25 μM, Enzo Life Sciences), cytochalasin B (5 μM, Sigma) or chymostatin (10 μg/mL, Sigma)) or recombinant furin (100 ng/mL, maximal dose tolerated by the neutrophils, Peprotech) 30 minutes prior to addition of stimuli. In some experiments cell surface levels of B cell activating factor (BAFF, Biolegend) was analyzed according to the same protocol as described above. Monocytes and pDCs were detected using antibodies to CD14 (BioLegend) and CD304 (Miltenyi Biotech), respectively.

In the case of `CCOCc1nc2c(N)nc3ccccc3c2n1CC(C)(C)O` [R848], the “cell-free FcgRIIA-IV.3 (anti-CD32A) complexes in supernatant” value (FcgRIIA on neutrophils [1]) was “detected in increased amounts in the cell-free supernatant”, the “cellular localization of ROS generation” value (neutrophils) was “induced intracellular generation of ROS, but no detectable extracellular ROS” and the “neutrophil cell surface expression of FcgRIIA after stimulus” value (FcgRIIA on neutrophils [2]; clone IV.3, vs non-stimulated) was “significantly reduced; also recorded: time- and dose-dependent”. For the same compound, the “neutrophil surface levels of FcgRIIIB and FcgRI after stimulus” value (FcgRIIA on neutrophils [2]; vs no R848) was “increased”.
